According to ChEMBL document CHEMBL4507260 (2021):

How the values were obtained:
Settings in all cases: Compound concentration 1000.0 nM
[1] = target: AP2-associated protein kinase 1 (Homo sapiens) (UniProt Q2M2I8)
[2] = test system: Tyrosine-protein kinase ABL1 (Homo sapiens), P00519 [Q252H]
[3] = test system: Tyrosine-protein kinase ABL1 (Homo sapiens), P00519 [Q252H]; remark: listed apart in the source
[4] = test system: Tyrosine-protein kinase ABL1 (Homo sapiens), P00519 [T315I]
[5] = test system: Tyrosine-protein kinase ABL1 (Homo sapiens), P00519 [Y253F]
[6] = target: Tyrosine-protein kinase ABL1 (Homo sapiens) (UniProt P00519)
[7] = target: Activin receptor type-2B (Homo sapiens) (UniProt Q13705)
[8] = target: Bone morphogenetic protein receptor type-1A (Homo sapiens) (UniProt P36894)
[9] = target: Serine/threonine-protein kinase BRSK2 (Homo sapiens) (UniProt Q8IWQ3)
[10] = target: Calcium/calmodulin-dependent protein kinase type II subunit beta (Homo sapiens) (UniProt Q13554)
[11] = target: Cyclin-dependent kinase 13 (Homo sapiens) (UniProt Q14004)
[12] = target: Cyclin-dependent kinase 4 (Homo sapiens) (UniProt P11802)
[13] = target: Serine/threonine-protein kinase Chk2 (Homo sapiens) (UniProt O96017)
[14] = target: Casein kinase I isoform alpha (Homo sapiens) (UniProt P48729)
[15] = target: Casein kinase I isoform delta (Homo sapiens) (UniProt P48730)
[16] = target: Casein kinase II subunit alpha' (Homo sapiens) (UniProt P19784)
[17] = target: Mitogen-activated protein kinase kinase kinase 12 (Homo sapiens) (UniProt Q12852)
[18] = test system: Epidermal growth factor receptor (Homo sapiens), P00533 [L861Q]
[19] = target: Ephrin type-B receptor 6 (Homo sapiens) (UniProt O15197)
[20] = target: Mitogen-activated protein kinase 1 (Homo sapiens) (UniProt P28482)
[21] = target: Tyrosine-protein kinase Fgr (Homo sapiens) (UniProt P09769)
[22] = test system: Receptor-type tyrosine-protein kinase FLT3 (Homo sapiens), P36888 [UNDEFINED MUTATION]
[23] = target: Vascular endothelial growth factor receptor 3 (Homo sapiens) (UniProt P35916)
[24] = target: Tyrosine-protein kinase Fyn (Homo sapiens) (UniProt P06241)
[25] = target: Rhodopsin kinase GRK7 (Homo sapiens) (UniProt Q8WTQ7)
[26] = target: Inhibitor of nuclear factor kappa-B kinase subunit epsilon (Homo sapiens) (UniProt Q14164)
[27] = target: Insulin receptor (Homo sapiens) (UniProt P06213)
[28] = target: Tyrosine-protein kinase JAK3 (Homo sapiens) (UniProt P52333)
[29] = target: Mitogen-activated protein kinase kinase kinase 1 (Homo sapiens) (UniProt Q13233)
[30] = target: Mitogen-activated protein kinase kinase kinase kinase 2 (Homo sapiens) (UniProt Q12851)
[31] = target: Muscle, skeletal receptor tyrosine-protein kinase (Homo sapiens) (UniProt O15146)
[32] = target: Mitogen-activated protein kinase 13 (Homo sapiens) (UniProt O15264)
[33] = target: Serine/threonine-protein kinase PAK 4 (Homo sapiens) (UniProt O96013)
[34] = target: Phosphatidylinositol 3-kinase C2 domain-containing subunit gamma (Homo sapiens) (UniProt O75747)
[35] = target: Phosphatidylinositol 5-phosphate 4-kinase type-2 beta (Homo sapiens) (UniProt P78356)
[36] = target: cAMP-dependent protein kinase catalytic subunit alpha (Homo sapiens) (UniProt P17612)
[37] = target: Protein kinase C delta type (Homo sapiens) (UniProt Q05655)
[38] = target: Ribosomal protein S6 kinase alpha-3 (Homo sapiens) (UniProt P51812)
[39] = target: Ribosomal protein S6 kinase beta-1 (Homo sapiens) (UniProt P23443)
[40] = target: Serine/threonine-protein kinase Sgk2 (Homo sapiens) (UniProt Q9HBY8)
[41] = target: SRSF protein kinase 3 (Homo sapiens) (UniProt Q9UPE1)
[42] = target: High affinity nerve growth factor receptor (Homo sapiens) (UniProt P04629)
[43] = target: Tyrosine-protein kinase receptor TYRO3 (Homo sapiens) (UniProt Q06418)
[44] = target: Serine/threonine-protein kinase VRK2 (Homo sapiens) (UniProt Q86Y07)
[45] = target: Wee1-like protein kinase 2 (Homo sapiens) (UniProt P0C1S8)
[46] = target: Serine/threonine-protein kinase 32B (Homo sapiens) (UniProt Q9NY57)

Measured: residual activity

Chain of Mitogen-activated protein kinase kinase kinase kinase 2 (Homo sapiens) (Q12851 whole entry): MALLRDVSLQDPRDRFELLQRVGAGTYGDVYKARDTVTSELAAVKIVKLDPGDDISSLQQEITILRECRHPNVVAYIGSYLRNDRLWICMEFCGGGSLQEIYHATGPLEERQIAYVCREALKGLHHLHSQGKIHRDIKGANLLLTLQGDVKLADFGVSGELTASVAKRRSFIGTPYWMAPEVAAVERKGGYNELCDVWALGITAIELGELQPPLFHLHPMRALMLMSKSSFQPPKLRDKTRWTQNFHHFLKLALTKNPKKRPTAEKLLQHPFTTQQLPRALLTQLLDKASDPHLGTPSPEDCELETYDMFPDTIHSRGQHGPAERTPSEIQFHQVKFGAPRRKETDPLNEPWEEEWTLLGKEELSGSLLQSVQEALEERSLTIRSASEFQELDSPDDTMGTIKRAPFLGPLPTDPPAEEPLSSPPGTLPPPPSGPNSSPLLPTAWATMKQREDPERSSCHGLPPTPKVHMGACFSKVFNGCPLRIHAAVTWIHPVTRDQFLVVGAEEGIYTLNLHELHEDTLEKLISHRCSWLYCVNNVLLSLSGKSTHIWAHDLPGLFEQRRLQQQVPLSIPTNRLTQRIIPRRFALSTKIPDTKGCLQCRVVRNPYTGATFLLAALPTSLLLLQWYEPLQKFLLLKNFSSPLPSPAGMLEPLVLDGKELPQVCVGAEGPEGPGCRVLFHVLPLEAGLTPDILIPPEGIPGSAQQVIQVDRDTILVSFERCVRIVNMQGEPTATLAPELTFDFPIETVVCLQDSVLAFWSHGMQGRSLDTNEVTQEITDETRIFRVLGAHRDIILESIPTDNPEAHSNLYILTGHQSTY
Chain of AP2-associated protein kinase 1 (Homo sapiens) (Q2M2I8 whole entry, looked up): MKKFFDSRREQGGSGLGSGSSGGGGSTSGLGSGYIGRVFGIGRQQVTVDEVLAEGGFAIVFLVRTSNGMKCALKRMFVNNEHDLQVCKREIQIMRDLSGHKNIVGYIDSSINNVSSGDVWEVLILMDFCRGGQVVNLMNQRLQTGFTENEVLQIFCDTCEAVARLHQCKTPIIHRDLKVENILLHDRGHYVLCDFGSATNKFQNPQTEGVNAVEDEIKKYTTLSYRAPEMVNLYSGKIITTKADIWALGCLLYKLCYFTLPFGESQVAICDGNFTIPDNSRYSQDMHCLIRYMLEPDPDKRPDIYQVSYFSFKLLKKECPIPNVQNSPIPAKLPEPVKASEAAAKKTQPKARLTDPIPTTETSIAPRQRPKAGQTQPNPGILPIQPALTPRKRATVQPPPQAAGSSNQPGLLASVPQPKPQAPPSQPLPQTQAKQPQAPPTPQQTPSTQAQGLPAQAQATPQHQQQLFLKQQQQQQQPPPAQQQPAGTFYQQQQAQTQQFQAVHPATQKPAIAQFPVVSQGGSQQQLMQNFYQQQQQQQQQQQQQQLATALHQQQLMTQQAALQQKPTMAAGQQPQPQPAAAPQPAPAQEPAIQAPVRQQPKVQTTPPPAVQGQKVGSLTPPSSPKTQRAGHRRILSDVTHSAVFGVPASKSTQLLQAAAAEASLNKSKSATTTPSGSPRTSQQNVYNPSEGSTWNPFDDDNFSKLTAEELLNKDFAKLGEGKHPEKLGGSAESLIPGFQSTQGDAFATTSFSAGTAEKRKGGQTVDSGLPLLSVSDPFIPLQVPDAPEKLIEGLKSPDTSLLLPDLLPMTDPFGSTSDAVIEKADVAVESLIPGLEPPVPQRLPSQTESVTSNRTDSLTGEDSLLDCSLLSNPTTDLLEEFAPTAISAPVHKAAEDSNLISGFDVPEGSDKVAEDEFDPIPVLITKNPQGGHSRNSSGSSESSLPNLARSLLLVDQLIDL
Chain of Insulin receptor (Homo sapiens) (P06213 28-758 limits assumed): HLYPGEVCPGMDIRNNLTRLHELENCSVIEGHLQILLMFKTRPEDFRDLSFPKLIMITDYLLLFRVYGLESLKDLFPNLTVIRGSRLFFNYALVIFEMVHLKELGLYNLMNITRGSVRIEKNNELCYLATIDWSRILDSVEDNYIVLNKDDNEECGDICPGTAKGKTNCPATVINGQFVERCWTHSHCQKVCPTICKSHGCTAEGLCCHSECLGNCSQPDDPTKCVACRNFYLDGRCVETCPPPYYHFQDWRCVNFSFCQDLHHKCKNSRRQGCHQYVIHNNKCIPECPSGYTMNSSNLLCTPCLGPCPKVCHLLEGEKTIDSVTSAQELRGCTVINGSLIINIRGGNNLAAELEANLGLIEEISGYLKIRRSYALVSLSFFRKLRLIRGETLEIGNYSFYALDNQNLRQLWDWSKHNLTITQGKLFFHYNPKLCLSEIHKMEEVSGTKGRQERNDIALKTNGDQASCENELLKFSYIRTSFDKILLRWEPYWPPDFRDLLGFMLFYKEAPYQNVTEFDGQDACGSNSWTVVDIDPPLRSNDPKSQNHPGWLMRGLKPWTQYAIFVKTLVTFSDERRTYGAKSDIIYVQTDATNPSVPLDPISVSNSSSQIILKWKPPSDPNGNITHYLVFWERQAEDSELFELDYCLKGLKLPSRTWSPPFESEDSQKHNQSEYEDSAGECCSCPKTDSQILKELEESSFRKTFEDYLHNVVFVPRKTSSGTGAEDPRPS
Chain of Insulin receptor (Homo sapiens) (P06213 763-1382 limits assumed): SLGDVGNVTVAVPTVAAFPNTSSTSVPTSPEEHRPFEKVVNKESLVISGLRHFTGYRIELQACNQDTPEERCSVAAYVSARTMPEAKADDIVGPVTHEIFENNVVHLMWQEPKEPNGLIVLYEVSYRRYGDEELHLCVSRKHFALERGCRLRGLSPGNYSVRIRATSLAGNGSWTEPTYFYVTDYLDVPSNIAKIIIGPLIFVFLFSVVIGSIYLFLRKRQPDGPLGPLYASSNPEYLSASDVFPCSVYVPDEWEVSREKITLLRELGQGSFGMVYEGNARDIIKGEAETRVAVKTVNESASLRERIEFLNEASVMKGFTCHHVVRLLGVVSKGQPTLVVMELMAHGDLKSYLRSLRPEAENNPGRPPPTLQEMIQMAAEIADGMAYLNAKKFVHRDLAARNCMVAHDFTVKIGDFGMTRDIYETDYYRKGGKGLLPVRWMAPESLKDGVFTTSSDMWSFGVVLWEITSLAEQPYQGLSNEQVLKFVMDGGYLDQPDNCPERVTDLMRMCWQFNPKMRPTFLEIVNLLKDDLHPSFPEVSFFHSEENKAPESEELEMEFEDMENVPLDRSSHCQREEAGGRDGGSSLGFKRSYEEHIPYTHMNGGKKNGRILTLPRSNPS
Chain of Vascular endothelial growth factor receptor 3 (Homo sapiens) (P35916 whole entry): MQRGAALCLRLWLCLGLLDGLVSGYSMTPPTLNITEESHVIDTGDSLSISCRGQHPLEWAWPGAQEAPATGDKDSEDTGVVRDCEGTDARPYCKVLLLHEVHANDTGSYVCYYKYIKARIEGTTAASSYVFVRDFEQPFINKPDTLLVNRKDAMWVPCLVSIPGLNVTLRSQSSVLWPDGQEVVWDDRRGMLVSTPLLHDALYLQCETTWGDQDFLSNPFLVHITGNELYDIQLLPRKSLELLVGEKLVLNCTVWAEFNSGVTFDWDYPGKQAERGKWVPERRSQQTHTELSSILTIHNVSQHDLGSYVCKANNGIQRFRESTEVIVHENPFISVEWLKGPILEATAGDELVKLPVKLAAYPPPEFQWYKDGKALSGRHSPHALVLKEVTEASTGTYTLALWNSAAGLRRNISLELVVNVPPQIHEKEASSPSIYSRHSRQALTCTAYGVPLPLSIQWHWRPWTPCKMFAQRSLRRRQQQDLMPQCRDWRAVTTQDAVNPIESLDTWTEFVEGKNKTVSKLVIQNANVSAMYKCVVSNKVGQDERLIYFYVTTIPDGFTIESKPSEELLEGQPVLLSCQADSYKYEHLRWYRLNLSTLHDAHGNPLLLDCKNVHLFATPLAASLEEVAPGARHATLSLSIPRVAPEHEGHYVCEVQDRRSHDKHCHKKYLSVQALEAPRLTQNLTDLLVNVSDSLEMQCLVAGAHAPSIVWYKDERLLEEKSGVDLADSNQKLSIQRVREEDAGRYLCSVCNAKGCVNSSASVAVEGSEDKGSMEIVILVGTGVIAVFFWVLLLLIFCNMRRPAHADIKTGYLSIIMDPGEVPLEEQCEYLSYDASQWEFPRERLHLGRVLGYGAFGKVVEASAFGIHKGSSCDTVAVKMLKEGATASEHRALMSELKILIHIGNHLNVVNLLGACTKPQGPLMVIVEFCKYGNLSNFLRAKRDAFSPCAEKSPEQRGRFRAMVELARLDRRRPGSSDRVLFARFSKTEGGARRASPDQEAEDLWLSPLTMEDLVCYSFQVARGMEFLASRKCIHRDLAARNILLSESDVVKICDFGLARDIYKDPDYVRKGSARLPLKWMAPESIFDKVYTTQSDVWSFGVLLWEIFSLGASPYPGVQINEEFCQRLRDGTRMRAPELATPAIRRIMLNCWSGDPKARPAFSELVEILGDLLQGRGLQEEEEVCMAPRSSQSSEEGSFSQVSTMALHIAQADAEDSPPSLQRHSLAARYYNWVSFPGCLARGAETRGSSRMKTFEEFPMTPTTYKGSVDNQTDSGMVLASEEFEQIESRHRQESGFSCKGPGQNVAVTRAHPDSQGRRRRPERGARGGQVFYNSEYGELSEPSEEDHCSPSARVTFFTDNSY
Chain of Tyrosine-protein kinase Fgr (Homo sapiens) (P09769 2-529 limits assumed): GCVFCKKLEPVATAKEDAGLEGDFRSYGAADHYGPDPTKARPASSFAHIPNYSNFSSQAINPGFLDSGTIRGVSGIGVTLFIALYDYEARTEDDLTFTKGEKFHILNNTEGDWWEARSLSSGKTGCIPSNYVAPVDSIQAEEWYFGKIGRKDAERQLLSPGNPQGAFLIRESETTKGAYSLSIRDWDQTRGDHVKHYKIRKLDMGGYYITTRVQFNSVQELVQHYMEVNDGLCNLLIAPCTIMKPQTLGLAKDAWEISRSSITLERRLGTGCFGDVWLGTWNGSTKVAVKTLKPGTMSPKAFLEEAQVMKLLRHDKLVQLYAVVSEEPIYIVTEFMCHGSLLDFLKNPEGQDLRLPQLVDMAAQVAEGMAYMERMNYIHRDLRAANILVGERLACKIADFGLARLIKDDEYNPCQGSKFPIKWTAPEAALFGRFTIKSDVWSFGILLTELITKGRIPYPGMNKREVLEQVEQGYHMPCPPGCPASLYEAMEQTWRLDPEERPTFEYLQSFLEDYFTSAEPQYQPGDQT

CSc1cccnc1N1CCN(Cc2nc3ccccc3[nH]2)CC1 [A-769]
inactive: [1] 100% | [2] 67% | [3] 71% | [4] 99% | [5] 76% | [6] 78% | [7] 98% | [8] 100% | [9] 100% | [10] 100% | [11] 85% | [12] 84% | [13] 96% | [14] 72% | [15] 100% | [16] 100% | [17] 74% | [18] 100% | [19] 89% | [20] 93% | [21] 100% | [22] 100% | [23] 100% | [24] 100% | [25] 87% | [26] 81% | [27] 85% | [28] 100% | [29] 70% | [30] 100% | [31] 100% | [32] 100% | [33] 100% | [34] 95% | [35] 100% | [36] 92% | [37] 100% | [38] 77% | [39] 87% | [40] 81% | [41] 100% | [42] 85% | [43] 100% | [44] 75% | [45] 100% | [46] 100%

c1ccc(N2CCN(Cc3nc4ccccc4[nH]3)CC2)nc1 [ABT-724]
inactive: [1] 100% | [2] 93% | [3] 100% | [4] 100% | [5] 100% | [6] 100% | [7] 100% | [8] 86% | [9] 100% | [10] 100% | [11] 100% | [12] 100% | [13] 100% | [14] 93% | [15] 95% | [16] 100% | [17] 97% | [18] 74% | [19] 75% | [20] 100% | [21] 100% | [22] 100% | [23] 100% | [24] 100% | [25] 100% | [26] 100% | [27] 100% | [28] 100% | [29] 99% | [30] 100% | [31] 100% | [32] 100% | [33] 93% | [34] 100% | [35] 100% | [36] 91% | [37] 100% | [38] 100% | [39] 97% | [40] 100% | [41] 100% | [42] 100% | [43] 93% | [44] 100% | [45] 100% | [46] 100%
